Experimental data from patent publication US20260116910A1, “POLYCYCLIC COMPOUNDS AND METHODS THEREOF” (HEPAITECH (BEIJING) BIOPHARMA TECHNOLOGY CO., LTD., priority 2021, published 2026).
Like-named read-outs stand apart in the source and are kept apart here. One block for each compound: values may come before it.

Experiments:
[1] = target: T1, human FXR (NR1H4) (Homo sapiens, UniProt Q96RI1); assay: Human FXR (NR1H4) agonist assessment, FXRE-NanoLuc reporter in HEK293T cells; assay type: cell-based; settings: for EC50: read-out: EC50
T1 sequence (Q96RI1 1-476 isoform Q96RI1-1): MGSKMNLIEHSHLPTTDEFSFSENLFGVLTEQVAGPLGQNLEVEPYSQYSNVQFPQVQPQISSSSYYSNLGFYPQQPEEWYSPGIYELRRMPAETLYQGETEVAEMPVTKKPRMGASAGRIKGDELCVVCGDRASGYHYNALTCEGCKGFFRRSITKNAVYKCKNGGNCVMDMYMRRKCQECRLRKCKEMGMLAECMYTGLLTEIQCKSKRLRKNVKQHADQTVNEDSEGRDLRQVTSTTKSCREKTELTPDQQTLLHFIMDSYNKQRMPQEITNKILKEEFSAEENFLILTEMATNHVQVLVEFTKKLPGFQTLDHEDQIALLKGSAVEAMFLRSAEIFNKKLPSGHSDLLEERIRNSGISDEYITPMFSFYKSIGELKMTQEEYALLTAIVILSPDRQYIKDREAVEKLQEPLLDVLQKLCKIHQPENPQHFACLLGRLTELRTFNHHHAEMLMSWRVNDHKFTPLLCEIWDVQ
Procedure: As those skilled in the art appreciate, various technologies are available for assessment of FXR activation in accordance with the present disclosure. […] Human FXR (NR1H4) agonist assessment (see, e.g., Yu et al. eLife 2019; 8: e48431): HEK293T cells stably expressing human FXR and containing FXR response element (FXRE)-NanoLuc reporter were cultured in DMEM medium supplemented with 10% FBS and 1% PS, at 37° C. in a humidified atmosphere with 5% CO2. Cells were detached by centrifuging (1000 rpm, 3 min). The pellet was re-suspended in medium, and cell density was adjusted to about 1×10^6 cells/mL. 100 μL suspension was seeded to each well of a white-walled, clear-bottom 96-well microplates (cell plate). Cells in microplates were cultured overnight.
In the following day, cells were grown to higher than 95% density in each well. Culture medium was replaced, and compounds were added to the wells. 0.01% DMSO (v/v) served as negative control. Plates were incubated at 37° C. in 5% CO2 for 24 hr.
In the following day, a 10 μL aliquot of cell culture medium was removed from each well and combined with 40 μL culture medium plus […] assay buffer (containing 20 mM of the luciferase substrate coelenterazine). After 5 min incubation, luminescence was measured using an EnVision plate reader (PerkinElmer).
In some embodiments, gradient diluted solutions of several concentrations were used to treat cells and corresponding responses were used to fit sigmoid function and to derive EC50 in Origin.

[2] = target: MRGPRX4 (Homo sapiens, UniProt Q96LA9); assay: MRGPRX4 activation, Fluo-8 Ca2+ FLIPR assay in HEK293T cells stably expressing MRGPRX4; assay type: cell-based; settings: for EC50: MRGPRX4 activation, Ca2+ fluorescence
Procedure: In some embodiments, cells were cultured in poly-D-Lys coated blacked walled, clear-bottom 96-well microplates. HEK293T cells stably expressing MRGPRX4 were cultured in DMEM medium supplemented with 10% FBS and 1% PS, at 37° C. in a humidified atmosphere with 5% CO2. Cells were detached by centrifuging (1000 rpm, 3 min). The pellet was re-suspended in medium, and cell density was adjusted to about 1×10^6 cells/mL. 100 μL suspension was seeded to each well of a microplates (cell plate). Cells in the microplates were cultured overnight. In the following day, cells were grown to higher than 95% density in each well.
Ca^2+ fluorescent dye loading: Fluo-8 AM (Screen Quest Fluo-8 AM Calcium Assay Kit, AAT Bioquest, cat. #: 21083) was diluted in HHBS buffer and adjusted to 2 μM (dye buffer). Medium in each well was changed into 50 μL dye buffer carefully. After incubation for 40-60 min under room temperature, the dye buffer was changed into 50 μL HHBS buffer.
The concentration of solution should be determined according to the protocol settings and experimental needs (e.g., Log[M]=−4, −5, −6, −7, −8, and −9). Prepare 2× serial dilution series of compounds (at least 75 μL per well).
A fluorescent signal baseline was measured using FLIPR®Tetra for 30 s. Then 50 μL of the chemical solution would be added to the cell plate. The fluorescent signal would be measured for another 150 s.
Activity of each compound was calculated by the fluorescence change (dF/F0). Curves were fitted to obtain EC50 values. In some embodiments, at least 3 repeats were performed to obtain the average values. For assessment of a compound, gradient diluted solutions of different concentrations were used to treat cells and corresponding responses were used to fit sigmoid function and to derive EC50 in Origin. In some embodiments, assessed concentrations were or included about 10^−4, 10^−4.5, 10^−5, 10^−5.5, 10^−6, 10^−6.5, 10^−7, 10^−8, and/or 10^−9 M; for example, in many instances, assessed concentrations included about 10^−5, 10^−6, 10^−7 and 10^−8 M. In some embodiments, assessed concentrations were about 10^−4, 10^−4.5, 10^−5, 10^−5.5, 10^−6, 10^−7, 10^−8, and 10^−9 M. In some embodiments, assessed concentrations were about 10^−4, 10^−5, 10^−6, 10^−7, 10^−8, and 10^−9 M. In some embodiments, assessed concentrations were about 10^−4, 10^−4.5, 10^−5, 10^−5.5, 10^−6, and 10^−7 M. In some embodiments, assessed concentrations were about 2000000, 1000000, 500000, 250000, 125000, 62500, 31250, 15625, 7813, 3906 nM. […] In some embodiments, assessed concentrations were about 30000, 10000, 3333, 1111, 370, 123, 41, 14, 4.6, 1.5 nM.

[3] = FXR activation, HEK293T FXRE-NanoLuc reporter, 24 hr

Sequence of MRGPRX4 (Q96LA9 whole entry): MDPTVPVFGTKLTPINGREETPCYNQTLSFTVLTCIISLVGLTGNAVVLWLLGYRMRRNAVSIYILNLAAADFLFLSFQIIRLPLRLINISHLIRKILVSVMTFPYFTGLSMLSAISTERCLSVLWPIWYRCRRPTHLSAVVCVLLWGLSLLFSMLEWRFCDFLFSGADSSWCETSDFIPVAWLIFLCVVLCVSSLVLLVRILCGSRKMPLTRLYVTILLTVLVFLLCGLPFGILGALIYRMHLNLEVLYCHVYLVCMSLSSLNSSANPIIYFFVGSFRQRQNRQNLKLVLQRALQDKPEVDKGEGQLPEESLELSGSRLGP

Compound: CC[C@H]1[C@@H](O)[C@@H]2[C@H](CC[C@]3(C)[C@@H]([C@H](C)CCNC(=S)NS(=O)(=O)c4cccs4)CC[C@@H]23)[C@@]2(C)CCCC[C@@H]12 [7-3]
Efficacy (maximum measured induction of NanoLuc, normalized to CDCA set as 100%) [1]: C (key: A: efficacy >400%; B: 300%<efficacy <=400%; C: 100%<efficacy <=300%; D: efficacy <=100%)
EC50 [1, 3]: < 1 µM

Compound: CC[C@H]1[C@@H](O)[C@@H]2[C@H](CC[C@]3(C)[C@@H]([C@H](C)CCNC(=O)C(=O)O)CC[C@@H]23)[C@@]2(C)CCCC[C@@H]12 [8-1]
Efficacy (maximum measured induction of NanoLuc, normalized to CDCA set as 100%) [1, 3]: B (300%<efficacy <=400%)
EC50 [1, 3]: 1 to 10 µM

Compound: C[C@H](CCC(=O)O)[C@H]1CC[C@H]2[C@@H]3CC[C@@H]4C[C@H](O)CC[C@]4(C)[C@H]3C[C@H](O)[C@]12C [DCA, deoxycholic acid, reference compound]
Activation (%) ([2]; E3-8-1, 5 nM, n = 1): 1.93%
Activation (%) ([2]; E3-8-1, 5 nM, n = 2): 0.08%
Activation (%) ([2]; E3-8-1, 15 nM, n = 1): 1.01%
Activation (%) ([2]; E3-8-1, 15 nM, n = 2): 0.39%
Activation (%) ([2]; E3-8-1, 46 nM, n = 1): 2.24%
Activation (%) ([2]; E3-8-1, 46 nM, n = 2): 0.70%
Activation (%) ([2]; E3-8-1, 412 nM, n = 1): 3.48%
Activation (%) ([2]; E3-8-1, 412 nM, n = 2): 0.70%
Activation (%) ([2]; E3-8-1, 1235 nM, n = 1): 14.9%
Activation (%) ([2]; E3-8-1, 1235 nM, n = 2): 6.58%
Activation (%) ([2]; E3-8-1, 3704 nM, n = 1): 37.5%
Activation (%) ([2]; E3-8-1, 3704 nM, n = 2): 30.1%
Activation (%) ([2]; E3-8-1, 11111 nM, n = 1): 73.8%
Activation (%) ([2]; E3-8-1, 11111 nM, n = 2): 56.4%
Activation (%) ([2]; E3-8-1, 33333 nM, n = 1): 95.1%
Activation (%) ([2]; E3-8-1, 33333 nM, n = 2): 98.5%
Activation (%) ([2]; E3-8-1, 100000 nM, n = 1): 96.4%
Activation (%) ([2]; E3-8-1, 100000 nM, n = 2): 107.2%

Other lines, results leading:

MRGPRX4 activation, fluorescence change (dF/F0), Average ([2]; Conc. (Log[M]) −4): 1.098
MRGPRX4 activation, fluorescence change (dF/F0), Average ([2]; Conc. (Log[M]) −4.5): 0.586
MRGPRX4 activation, fluorescence change (dF/F0), Average ([2]; Conc. (Log[M]) −5): 0.082
MRGPRX4 activation, fluorescence change (dF/F0), Average ([2]; Conc. (Log[M]) −5.5): −0.017
MRGPRX4 activation, fluorescence change (dF/F0), Average ([2]; Conc. (Log[M]) −6): −0.057
MRGPRX4 activation, fluorescence change (dF/F0), Average ([2]; Conc. (Log[M]) −7): −0.044
MRGPRX4 activation, fluorescence change (dF/F0), Average ([2]; Conc. (Log[M]) −8): −0.049
MRGPRX4 activation, fluorescence change (dF/F0), Average ([2]; Conc. (Log[M]) −9): −0.070
Compound: C[C@H](CCC(=O)O)[C@H]1CC[C@H]2[C@@H]3[C@H](O)C[C@@H]4C[C@H](O)CC[C@]4(C)[C@H]3CC[C@]12C [CDCA, chenodeoxycholic acid, reference compound]

Activation (%) ([2]; E3-8-1, 3906 nM, n = 1): 3.48%
Activation (%) ([2]; E3-8-1, 3906 nM, n = 2): 4.41%
Activation (%) ([2]; E3-8-1, 7813 nM, n = 1): 3.48%
Activation (%) ([2]; E3-8-1, 7813 nM, n = 2): 4.10%
Activation (%) ([2]; E3-8-1, 15625 nM, n = 1): 6.58%
Activation (%) ([2]; E3-8-1, 15625 nM, n = 2): 9.06%
Activation (%) ([2]; E3-8-1, 31250 nM, n = 1): 13.7%
Activation (%) ([2]; E3-8-1, 31250 nM, n = 2): 25.8%
Activation (%) ([2]; E3-8-1, 62500 nM, n = 1): 65.7%
Activation (%) ([2]; E3-8-1, 62500 nM, n = 2): 49.9%
Activation (%) ([2]; E3-8-1, 125000 nM, n = 1): 100.4%
Activation (%) ([2]; E3-8-1, 125000 nM, n = 2): 85.8%
Activation (%) ([2]; E3-8-1, 250000 nM, n = 1): 104.4%
Activation (%) ([2]; E3-8-1, 250000 nM, n = 2): 100.4%
Activation (%) ([2]; E3-8-1, 500000 nM, n = 1): 138.8%
Activation (%) ([2]; E3-8-1, 500000 nM, n = 2): 110.9%
Activation (%) ([2]; E3-8-1, 1000000 nM, n = 1): 151.8%
Activation (%) ([2]; E3-8-1, 1000000 nM, n = 2): 149.6%
Activation (%) ([2]; E3-8-1, 2000000 nM, n = 1): 191.4%
Activation (%) ([2]; E3-8-1, 2000000 nM, n = 2): 158.9%
EC50 ([2]; no activation in tested range reported as III, read-out: Activity (EC50 μM)): < 50 µM
EC50 ([2]; read-out: Activity (EC50 μM), value in parentheses): 37 µM
Compound: CC[C@H]1[C@@H](O)[C@@H]2[C@H](CC[C@]3(C)[C@@H]([C@H](C)CCC(=O)O)CC[C@@H]23)[C@@]2(C)CC[C@@H](O)C[C@@H]12 [OCA, obeticholic acid, reference compound]
